{
  "source": "patent US20260098008A1",
  "about": "“COVALENT, CHEMOGENETIC ACTIVATORS FOR K2P POTASSIUM CHANNELS AND USES THEREOF” (THE REGENTS OF THE UNIVERSITY OF CALIFORNIA, priority 2022, published 2026)",
  "test_in_all_cases": "Single channel recordings from HEK293 cells in cell attached mode",
  "assay_type_in_all_cases": "cell-based",
  "settings_in_all_cases": "20 μM; for Change of open probability (Po activator/Po control): cell-attached, -100 mV",
  "key": {"[1]": {"biological_target": "T1, CG*-CG* tandem K2P2.1 (TREK-1) (Mus musculus, UniProt P97438, S146C)", "T1 construct": "expressed in transfected cells; host or cells: Xenopus laevis oocytes injected with mRNA", "T1 sequence (P97438 1-411 isoform P97438-2 S131C) 1": "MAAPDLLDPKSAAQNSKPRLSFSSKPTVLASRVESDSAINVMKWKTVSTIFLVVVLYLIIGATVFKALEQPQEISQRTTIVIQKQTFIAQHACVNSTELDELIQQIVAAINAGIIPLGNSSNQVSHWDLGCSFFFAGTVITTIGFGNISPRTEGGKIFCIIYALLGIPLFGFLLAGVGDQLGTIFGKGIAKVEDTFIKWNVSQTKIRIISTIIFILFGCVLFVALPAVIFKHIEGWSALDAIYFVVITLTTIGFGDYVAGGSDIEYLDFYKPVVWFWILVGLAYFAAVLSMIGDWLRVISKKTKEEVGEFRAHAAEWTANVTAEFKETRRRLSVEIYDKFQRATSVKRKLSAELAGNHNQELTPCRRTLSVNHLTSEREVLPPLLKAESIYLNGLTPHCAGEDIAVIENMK", "T1 sequence (P97438 1-411 isoform P97438-2 S131C) 2": "T1 sequence (P97438 1-411 isoform P97438-2 S131C) 1", "excerpt": "(§1) Mouse K2P2.1 (TREK-1) (Genbank accession number: NP_034737.2), mouse K2P10.1 (TREK-2) (NM_001316665.1), mouse K2P4.1 (TRAAK) (NM_008431.3), human K2P4.1 (TRAAK) (NM_033310.2) and mouse K2P18.1(TRESK) (NM_207261.3) were used for this study. Point mutations were introduced by site-directed mutagenesis using custom primers and confirmed by sequencing before use. For studies using Xenopus oocytes, K2P channels were subcloned into a previously reported pGEMHE/pMO vector (46). For expression in HEK293 cells, mouse K2P2.1 (TREK-1) and mutants were expressed from a previously described pIRES2-EGFP vector in HEK293 cells (46,47). K2P2.1 (TREK-1) tandems were constructed by connecting the open reading frames for the individual subunits with a linker encoding the […] (SEQ ID NO: 19) sequence. Tandems used for HEK293 cells included an N-terminal HA tag ([…] (SEQ ID NO: 20)) on the first subunit.\n(§2) Single-channel recordings of K2P2.1 (TREK-1) tandem mutants were recorded in cell-attached mode using HEK293 cells 48 h after transfection. Acquisition and analysis was preformed using pCLAMP9 and an Axopatch 200B amplifier. Pipettes were pulled using a laser-based micropipette puller (P-2000, Sutter Instruments). Electrode resistance after filling with pipette internal solution ranged from 6 to 10 MΩ. Pipette solution contained the following: 150 mM KCl, 3.6 mM CaCl2, 10 mM HEPES (pH 7.4 with KOH). The bath solution was identical to the pipette solution. Po was measured from 30-120 s recordings of K2P2.1 (TREK-1) activity holding at −100 mV. Channel conductance of K2P2.1 (TREK-1) tandems were measured from 30-60s recordings at either −100 mV or +50 mV holding potential. Recordings of CAT335 activated channels were obtained by bath applying 20 μM CAT335 for 2 min to the coverslip before transferring to the recording chamber. This was necessary as application of CAT335 via perfusion or through the pipette solution activated slowly (>5 min), making it difficult to measure Po from fully activated channels. BL-1249 was applied at 20 μM in the bath solution via perfusion at 3 mL min^−1 (2-4 min). Data were analyzed using Clampfit 11 and GraphPad Prism 9."}, "[2]": {"biological_target": "T2, CG*-WT tandem K2P2.1 (TREK-1) (Mus musculus, UniProt P97438, S146C)", "T2 construct": "expressed in transfected cells; host or cells: Xenopus laevis oocytes injected with mRNA", "T2 sequence (P97438 1-411 isoform P97438-2 S131C)": "T1 sequence (P97438 1-411 isoform P97438-2 S131C) 1", "T2 sequence (P97438 1-411 isoform P97438-2)": "T1 sequence (P97438 1-411 isoform P97438-2 S131C) 1 with C131S", "excerpt": "as §1, §2"}, "[3]": {"biological_target": "T3, WT-WT tandem K2P2.1 (TREK-1) (Mus musculus, UniProt P97438)", "T3 construct": "expressed in transfected cells; host or cells: Xenopus laevis oocytes injected with mRNA", "T3 sequence (P97438 1-411 isoform P97438-2) 1": "T1 sequence (P97438 1-411 isoform P97438-2 S131C) 1 with C131S", "T3 sequence (P97438 1-411 isoform P97438-2) 2": "T1 sequence (P97438 1-411 isoform P97438-2 S131C) 1 with C131S", "excerpt": "as §1, §2"}},
  "note": "Residue numbers refer to the chain shown, from its start.",
  "data": [
    {"compound": "c1ccc(-c2nn[nH]n2)c(Nc2cccc3c2CCCC3)c1", "note": "[BL-1249, reference compound]", "values": [
      {"measurement": "Change of open probability (Po activator/Po control)", "setting": "[1]", "value": "large increases in Po"},
      {"measurement": "Change of open probability (Po activator/Po control)", "setting": "[2]", "value": "large increases in Po"},
      {"measurement": "Change of open probability (Po activator/Po control)", "setting": "[3]", "value": "large increases in Po"}
    ]},
    {"compound": "O=C(NCc1ccc(Cl)cc1Cl)c1ccc(N2C(=O)C=CC2=O)cc1", "note": "[CAT335]", "values": [
      {"measurement": "Effect on single channel conductance", "setting": "[1]; -100 mV and +50 mV", "value": "minimal to no effect on single channel conductance"},
      {"measurement": "Change of open probability (Po activator/Po control)", "setting": "[1]", "value": 7.8},
      {"measurement": "Effect on single channel conductance", "setting": "[2]; -100 mV and +50 mV", "value": "minimal to no effect on single channel conductance"},
      {"measurement": "Change of open probability (Po activator/Po control)", "setting": "[2]", "value": 6.3},
      {"measurement": "Effect on single channel conductance", "setting": "[3]; -100 mV and +50 mV", "value": "minimal to no effect on single channel conductance"},
      {"measurement": "Change of open probability (Po activator/Po control)", "setting": "[3]", "value": "no impact on open probability"}
    ]}
  ]
}
